# According to US9073935B2, “Substituted benzylspiroindolin-2-one analogs as positive allosteric modulators of the muscarinic acetylcholine receptor M1” (VANDERBILT UNIVERSITY, priority 2011, dated 2015):
# Where two headings read alike, the source gives them in different places.
# Molecular target: T1, mAChR M1 (UniProt P11229)
# T1 sequence (P11229 1-460): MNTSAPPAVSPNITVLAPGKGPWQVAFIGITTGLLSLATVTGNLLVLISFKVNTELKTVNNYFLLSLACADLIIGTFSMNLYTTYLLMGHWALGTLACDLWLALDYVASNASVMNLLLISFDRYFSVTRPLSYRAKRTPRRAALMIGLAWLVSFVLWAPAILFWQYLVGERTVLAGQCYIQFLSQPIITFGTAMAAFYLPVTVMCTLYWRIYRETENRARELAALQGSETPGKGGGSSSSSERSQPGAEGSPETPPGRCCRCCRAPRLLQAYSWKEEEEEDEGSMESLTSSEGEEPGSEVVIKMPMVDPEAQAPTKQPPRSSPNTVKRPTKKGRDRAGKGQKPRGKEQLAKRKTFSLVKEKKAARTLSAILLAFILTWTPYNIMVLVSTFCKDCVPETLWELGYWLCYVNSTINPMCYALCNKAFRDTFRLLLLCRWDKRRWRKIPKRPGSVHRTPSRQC
# Test: mAChR M1 cell-based functional assay (calcium mobilization, potentiation of EC20 acetylcholine response)
# Settings: for EC50: CHO-K1 cells expressing mAChR M1, increase in EC20 acetylcholine response, >10 μM estimated where no plateau in the curve
# Protocol: Chinese hamster ovary (CHO-K1) cells stably expressing rat (r)M1 were purchased from the American Type Culture Collection and cultured according to their indicated protocol. […] To make stable rM2, hM2, rM3, hM4, and rM4 cell lines for use in calcium mobilization assays, these cells also were stably transfected with a chimeric G-protein (Gqi5) (provided by B. R. Conklin, University of California, San Francisco) using Lipofectamine 2000. rM1, hM1, rM3, hM3, rM5, and hM5 cells were grown in Ham's F-12 medium containing 10% heat-inactivated fetal bovine serum (FBS), 20 mM HEPES, and 50 μg/mL G418 sulfate. rM2-Gqi5, hM2-Gqi5, and hM4-Gqi5 cells were grown in the same medium also containing 500 μg/mL Hygromycin B. Stable rM4-Gqi5 cells were grown in DMEM containing 10% heat-inactivated FBS, 20 mM HEPES, 400 μg/mL G418 sulfate, and 500 μg/mL Hygromycin B.
# For high throughput measurement of agonist-evoked increases in intracellular calcium, CHO-K1 cells stably expressing muscarinic receptors were plated in growth medium lacking G418 and hygromycin at 15,000 cells/20 μL/well in Greiner 384-well black-walled, tissue culture (TC)-treated, clear-bottom plates (VWR). Cells were incubated overnight at 37° C. and 5% CO2. […] Compound master plates were formatted in an 11 point CRC format (1:3 dilutions) in 100% DMSO with a starting concentration of 10 mM using the BRAVO liquid handler (Agilent). Test compound CRCs were then transferred to daughter plates ([…]) using the Echo acoustic plate reformatter (Labcyte, Sunnyvale, Calif.) and then diluted into assay buffer (40 μL) to a 2× stock using a Thermo Fisher Combi (Thermo Fisher Scientific, Waltham, Mass.).
# Calcium flux was measured using the Functional Drug Screening System (FDSS) 6000 (Hamamatsu Corporation, Tokyo, Japan) as an increase in the fluorescent static ratio. Compounds were applied to cells (20 μL, 2×) using the automated system of the FDSS 6000 at 4 s into the 300 s protocol and the data were collected at 1 Hz. […] Agonist activity was analyzed as a concentration-dependent increase in calcium mobilization upon compound addition. Positive allosteric modulator activity was analyzed as a concentration-dependent increase in the EC20 acetylcholine response. Antagonist activity was analyzed as a concentration-dependent decrease in the EC80 acetylcholine response. Concentration-response curves were generated using a four-parameter logistical equation in XLfit curve fitting software (IDBS, Bridgewater, N.J.) for Excel (Microsoft, Redmond, Wash.) or Prism (GraphPad Software, Inc., San Diego, Calif.).
# The calcium mobilization assay was also used to determine “efficacy”. In the context of the assays carried out for the data in Table II, “efficacy” (% ACh at 30 μM) is defined as the maximal response in the calcium flux as determined by the sigmoidal curve fit of the concentration response curve, or in the absence of an acceptable curve fit, the response recorded at 30 μM test compound, stated as a percentage of the response elicited by a concentration of Ach that induces approximately 80% of a maximal (i.e. saturating) ACh response.
# Substituted benzylspiroindolin-2-one analogs were synthesized as described above. Activity (EC50 and Emax) was determined in the mAChR M1 cell-based functional assay as described above and the data are shown in Table III. The compound number corresponds to the compound numbers used in Tables I and II.
Compound,Emax (% ACh maximum at 30 μM) [%],EC50 [nM],Emax [%]
"CN1CCC2(C1)C(=O)N(Cc1ccc(-c3cnn(C)c3)cc1F)c1ccccc12 (single isomer, unassigned) [Compound B31, 1-(2-fluoro-4-(1-methyl-1H-pyrazol-4-yl)benzyl)-1′-methylspiro[indoline-3,3′-pyrrolidin]-2-one]",76,3800,
"Cn1cc(-c2ccc(CN3C(=O)C4(CCN(C5CCCOC5)C4)c4ccccc43)c(F)c2)cn1 (single isomer, unassigned) [Compound B34]",28,3900,
"Cn1cc(-c2ccc(CN3C(=O)C4(CCN(C5CCCOC5)C4)c4ccccc43)c(F)c2)cn1 (single isomer, unassigned) [Compound B35]",57,3900,
"Cn1cc(-c2ccc(CN3C(=O)C4(CCN(C(=O)c5ccccc5)C4)c4ccccc43)c(F)c2)cn1 (single isomer, unassigned) [Compound B45]",38,5300,
"Cn1cc(-c2ccc(CN3C(=O)C4(CCN(C(=O)c5ccccc5)C4)c4ccccc43)c(F)c2)cn1 (single isomer, unassigned) [Compound B47]",38,5800,
"Cn1cc(-c2ccc(CN3C(=O)C4(CCN(C5CCCCC5)C4)c4ccccc43)c(F)c2)cn1 (single isomer, unassigned) [Compound B58]",39,> 10000,
"Cn1cc(-c2ccc(CN3C(=O)C4(CCN(C5CCCOC5)C4)c4ccccc43)c(F)c2)cn1 (single isomer, unassigned) [Compound B67]",44,> 10000,
"Cn1cc(-c2ccc(CN3C(=O)C4(CCN(C5CCCOC5)C4)c4ccccc43)c(F)c2)cn1 (single isomer, unassigned) [Compound B68]",60,> 10000,
"Cn1cc(-c2ccc(CN3C(=O)C4(CCN(CC5CCCCC5)C4)c4ccccc43)c(F)c2)cn1 (single isomer, unassigned) [Compound B72]",36,> 10000,
"Cn1cc(-c2ccc(CN3C(=O)C4(CCN(CC5CCCCC5)C4)c4ccccc43)c(F)c2)cn1 (single isomer, unassigned) [Compound B73]",<20,> 10000,
Cn1cc(-c2ccc(CN3C(=O)C4(CCN(C5CCCCC5F)CC4)c4ccccc43)c(F)c2)cn1 (centres unmarked) [Compound B9],32,2300,
Cn1cc(-c2ccc(CN3C(=O)C4(CCN(C5CCCCCC5)C4)c4ccccc43)c(F)c2)cn1 (centres unmarked) [Compound B21],51,3000,
"Cn1cc(-c2ccc(CN3C(=O)C4(OCCO4)c4ccccc43)c(F)c2)cn1 [Compound B22, 1′-(2-fluoro-4-(1-methyl-1H-pyrazol-4-yl)benzyl)spiro[[1,3]dioxolane-2,3′-indolin]-2′-one]",86,3200,
Cn1cc(-c2ccc(CN3C(=O)C4(CCN(CCF)C4)c4ccccc43)c(F)c2)cn1 (centres unmarked) [Compound B23],,3200,63
CCN1CCC2(C1)C(=O)N(Cc1ccc(-c3cnn(C)c3)cc1F)c1ccccc12 (centres unmarked) [Compound B24],65,3200,
Cn1cc(-c2ccc(CN3C(=O)C4(CCN(C5CCOC5)C4)c4ccccc43)c(F)c2)cn1 (centres unmarked) [Compound B25],54,3300,

# Continued by falling EC50, values first:
Emax (% ACh maximum at 30 μM) [%],EC50 [nM],Emax [%],Compound
67,3000,,Cn1cc(-c2ccc(CN3C(=O)C4(CCN(C5CCCCC5F)C4)c4ccccc43)c(F)c2)cn1 (centres unmarked) [Compound B20]
62,2900,,"CN1CCC2(C1)C(=O)N(Cc1ccc(-c3cnn(C)c3)cc1F)c1ccccc12 (racemic) [Compound B18, 1-(2-fluoro-4-(1-methyl-1H-pyrazol-4-yl)benzyl)-1′-methylspiro[indoline-3,3′-pyrrolidin]-2-one]"
62,2900,,Cn1cc(-c2ccc(CN3C(=O)C4(CCN(C5CCCOC5)C4)c4ccccc43)c(F)c2)cn1 (centres unmarked) [Compound B19]
45,2800,,CCn1cc(-c2ccc(CN3C(=O)C4(CCN(C5CCCC5)C4)c4ccccc43)c(F)c2)cn1 (centres unmarked) [Compound B17]
46,2700,,"CN1CCC2(C1)C(=O)N(Cc1ccc(-c3cnn(C)c3)cc1F)c1ccccc12 (single isomer, unassigned) [Compound B16, 1-(2-fluoro-4-(1-methyl-1H-pyrazol-4-yl)benzyl)-1′-methylspiro[indoline-3,3′-pyrrolidin]-2-one]"
58,2700,,Cn1cc(-c2ccc(CN3C(=O)C4(CCN(C5CCSCC5)C4)c4ccccc43)c(F)c2)cn1 (centres unmarked) [Compound B15]
58,2600,,Cn1cc(-c2ccc(CN3C(=O)C4(CCN(C5CCC5)C4)c4ccccc43)c(F)c2)cn1 (centres unmarked) [Compound B14]
61,2400,,Cn1cc(-c2ccc(CN3C(=O)C4(CCN(C5CCOCC5)C4)c4ccccc43)c(F)c2)cn1 (centres unmarked) [Compound B10]
60,2400,,Cn1cc(-c2ccc(CN3C(=O)C4(CCN(CC5CC5)C4)c4ccccc43)c(F)c2)cn1 (centres unmarked) [Compound B11]
52,2400,,Cn1cc(-c2ccc(CN3C(=O)C4(CCN(C5CCCC5)C4)c4ccccc43)c(F)c2F)cn1 (centres unmarked) [Compound B12]
62,2400,,Cn1cc(-c2cc(F)c(CN3C(=O)C4(CCN(C5CCCC5)C4)c4ccccc43)cc2F)cn1 (centres unmarked) [Compound B13]
36,2000,,Cn1cc(-c2ccc(CN3C(=O)C4(CCN(C5CCCC5)C4)c4ccccc43)cc2F)cn1 (centres unmarked) [Compound B8]
63,1900,,"Cn1cc(-c2ccc(CN3C(=O)C4(CCN(c5ncccn5)C4)c4ccccc43)c(F)c2)cn1 (centres unmarked) [Compound B7, 1-(2-fluoro-4-(1-methyl-1H-pyrazol-4-yl)benzyl)-1′-(pyrimidin-2-yl)spiro[indoline-3,3′-pyrrolidin]-2-one]"
66,1800,,Cn1cc(-c2ccc(CN3C(=O)C4(CCN(C5CCCCC5)C4)c4ccccc43)c(F)c2)cn1 (centres unmarked) [Compound B5]
72,1700,,Cn1cc(-c2cc(F)c(CN3C(=O)C4(CCN(C5CCCC5)C4)c4ccccc43)c(F)c2)cn1 (centres unmarked) [Compound B4]
61,1600,,"Cn1cc(-c2ccc(CN3C(=O)C4(CCN(C5CCCC5)C4)c4ccccc43)c(F)c2)cn1 (centres unmarked) [Compound B3, 1′-cyclopentyl-1-(2-fluoro-4-(1-methyl-1H-pyrazol-4-yl)benzyl)spiro[indoline-3,3′-pyrrolidin]-2-one]"
73,1500,,"Cn1cc(-c2ccc(CN3C(=O)C4(CCN(C5CCCCC5)C4)c4ccccc43)c(F)c2)cn1 (single isomer, unassigned) [Compound B2]"
43,1300,,Cn1cc(-c2ccc(CN3C(=O)C4(CCN(C5CCCC5)C4)c4ccccc43)cc2)cn1 (centres unmarked) [Compound B1]
